Laboratory results: patent US8415312B2, “Compound which is a nystatin derivative” (Biosergen AS, priority 2007, dated 2013)
Converted amounts (≈) assume the structure as drawn.

Key:
Test in all cases: Antifungal susceptibility study (1), broth microdilution MIC
Format in all cases: cell-based
[1] = system: Fusarium oxysporum VKM F-140; settings: lowest concentration preventing any visible growth, read at 48 hours, 35° C., RPMI 1640 pH 7.0
Experimental: (§1) ACROS ORGANICS, New Jersey, USA), pH 7.0, was used in study. […] Then these DMSO solutions were diluted 50-fold (first 10-fold and then 5-fold) in the test medium. […] The solutions were prepared just before using. The organisms used for susceptibility testing were: Candida albicans ATCC 14053, Cryptococcus humicolus ATCC 9949, Aspergillus niger ATCC 16404 and Fusarium oxysporum VKM F-140 (=CMI, IMI 90473). Organisms were stored on potato dextrose agar […] 50% glycerol solution at -70° C. For short-term storage, stock cultures were stored on agar […] 4° C. The cultures of yeasts were sub-cultured onto Sabouraud dextrose (SAB) agar and incubated for 24 hours at 35° C. (Candida albicans) or for 48 hours at 25° C. (Cryptococcus humicolus) to obtain a freshly grown pure culture. The cultures of moulds were sub-cultured onto potato dextrose agar and incubated for 7 days at 35° C. […] (Fusarium oxysporum) to ensure maximum sporulation. […] Finally, the suspensions were vortexed for 15 s to break up clumps of cells and then filtered through four layers of sterile gauze. The densities of conidial spore suspensions was measured at 530 nm and adjusted to 0.09-0.11 for Aspergillus niger and 0.15-0.17 for Fusarium oxysporum. These suspensions were diluted 1:50 with the standard medium. […] Inoculum quantitation was performed by plating dilution of the inoculum on Sabouraud dextrose agar to determine the viable number of CFU per milliliter. Sterile 96-well flat-bottomed microtitration plates were used for testing. 100 μl of diluted inocula were dispensed into each microdilution well containing 100 μl of the double dilutions of compounds. Drug-free and yeast/mould-free controls were included. Microdilution trays were incubated at 35° C. (Candida albicans and moulds) or 25° C. (Cryptococcus humicolus) without agitation and observed for the presence or absence of visible growth. […] Minimal inhibitory concentrations (MICs) were read at 48 hours.

[2] = system: Aspergillus niger ATCC 16404; settings: lowest concentration preventing any visible growth, read at 48 hours, 35° C., RPMI 1640 pH 7.0
Experimental: as §1

[3] = system: Candida albicans ATCC 14053; settings: lowest concentration preventing any visible growth, read at 48 hours, 35° C., RPMI 1640 pH 7.0
Experimental: (§2) ACROS ORGANICS, New Jersey, USA), pH 7.0, was used in study. […] Then these DMSO solutions were diluted 50-fold (first 10-fold and then 5-fold) in the test medium. […] The solutions were prepared just before using. The organisms used for susceptibility testing were: Candida albicans ATCC 14053, Cryptococcus humicolus ATCC 9949, Aspergillus niger ATCC 16404 and Fusarium oxysporum VKM F-140 (=CMI, IMI 90473). Organisms were stored on potato dextrose agar […] 50% glycerol solution at -70° C. For short-term storage, stock cultures were stored on agar […] 4° C. The cultures of yeasts were sub-cultured onto Sabouraud dextrose (SAB) agar and incubated for 24 hours at 35° C. (Candida albicans) or for 48 hours at 25° C. (Cryptococcus humicolus) to obtain a freshly grown pure culture. The cultures of moulds were sub-cultured onto potato dextrose agar and incubated for 7 days at 35° C. […] (Fusarium oxysporum) to ensure maximum sporulation. […] Inoculum quantitation was performed by plating dilution of the inoculum on Sabouraud dextrose agar to determine the viable number of CFU per milliliter. Sterile 96-well flat-bottomed microtitration plates were used for testing. 100 μl of diluted inocula were dispensed into each microdilution well containing 100 μl of the double dilutions of compounds. Drug-free and yeast/mould-free controls were included. Microdilution trays were incubated at 35° C. (Candida albicans and moulds) or 25° C. (Cryptococcus humicolus) without agitation and observed for the presence or absence of visible growth. […] Minimal inhibitory concentrations (MICs) were read at 48 hours.

[4] = system: Cryptococcus humicolus ATCC 9949; settings: lowest concentration preventing any visible growth, read at 48 hours, 25° C., RPMI 1640 pH 7.0
Experimental: as §2

Row | SMILES | MIC Fusarium oxysporum VKM F-140 [1] [µg/mL] | MIC Aspergillus niger ATCC 16404 [2] [µg/mL] | MIC Candida albicans ATCC 14053 [3] [µg/mL] | MIC Cryptococcus humicolus ATCC 9949 [4] [µg/mL]
1 | CC1C=CC=CC=CC=CC=CC=CC=CC(OC2OC(C)C(O)C(NCc3ccc(N(C)C)cc3)C2O)CC2OC(O)(CC(O)C(O)CCC(O)CC(O)CC(O)CC(=O)OC(C)C(C)C1O)CC(O)C2C(=O)NCCCN(C)C (stereo not shown) [Compound 32] | 8 (≈ 7.01 µM) | 2 (≈ 1.75 µM) | 2 (≈ 1.75 µM) | 2 (≈ 1.75 µM)
2 | CC1C=CC=CC=CC=CC=CC=CC=CC(OC2OC(C)C(O)C(NCC3(O)OCC(O)C(OC4OC(CO)C(O)C(O)C4O)C3O)C2O)CC2OC(O)(CC(O)C(O)CCC(O)CC(O)CC(O)CC(=O)OC(C)C(C)C1O)CC(O)C2C(=O)O (stereo not shown) [Compound 19] | 8 (≈ 6.41 µM) | 2 (≈ 1.6 µM) | 2 (≈ 1.6 µM) | 2 (≈ 1.6 µM)
3 | CC1O[C@@H](O[C@H]2/C=C/C=C/C=C/C=C/C=C/C=C/C=C/[C@H](C)[C@@H](O)[C@@H](C)[C@H](C)OC(=O)C[C@H](O)C[C@H](O)C[C@H](O)CC[C@@H](O)[C@H](O)C[C@]3(O)C[C@H](O)[C@@H](C)[C@H](C2)O3)[C@H](O)C(N)[C@@H]1O.O=C(O)C(Cl)Cl (stereo partly shown) [Compound 57] | 2 | 2 | 2 | 2
4 | CC1O[C@@H](O[C@H]2/C=C/C=C/C=C/C=C/C=C/C=C/C=C/[C@H](C)[C@@H](O)[C@@H](C)[C@H](C)OC(=O)C[C@H](O)C[C@H](O)C[C@H](O)CC[C@@H](O)[C@H](O)C[C@]3(O)C[C@H](O)[C@@H](C(=O)NCCN(C)C)[C@H](C2)O3)[C@H](O)C(NCc2ccc(N(C)C)cc2)[C@@H]1O (stereo partly shown) [Compound 43] | 4 (≈ 3.55 µM) | 1 (≈ 0.887 µM) | 1 (≈ 0.887 µM) | 1 (≈ 0.887 µM)
5 | CC1C=CC=CC=CC=CC=CC=CC=CC(OC2OC(C)C(O)C(N(Cc3ccc(N(C)C)cc3)Cc3ccc(N(C)C)cc3)C2O)CC2OC(O)(CC(O)C(O)CCC(O)CC(O)CC(O)CC(=O)OC(C)C(C)C1O)CC(O)C2C(=O)O (stereo not shown) [Compound 20] | >16 | 4 (≈ 3.36 µM) | 2 (≈ 1.68 µM) | 2 (≈ 1.68 µM)
6 | CC1C=CC=CC=CC=CC=CC=CC=CC(OC2OC(C)C(O)C(NCC3(O)OCC(O)C(O)C3O)C2O)CC2OC(O)(CC(O)C(O)CCC(O)CC(O)CC(O)CC(=O)OC(C)C(C)C1O)CC(O)C2C(=O)NCCCN(C)C (stereo not shown) [Compound 30] | 4 (≈ 3.42 µM) | 1 (≈ 0.854 µM) | 1 (≈ 0.854 µM) | 1 (≈ 0.854 µM)
7 | CC1O[C@@H](O[C@H]2/C=C/C=C/C=C/C=C/C=C/C=C/C=C/[C@H](C)[C@@H](O)[C@@H](C)[C@H](C)OC(=O)C[C@H](O)C[C@H](O)C[C@H](O)CC[C@@H](O)[C@H](O)C[C@]3(O)C[C@H](O)[C@@H](C(=O)O)[C@H](C2)O3)[C@H](O)C(NC(=O)c2ccc(CN)cc2)[C@@H]1O (stereo partly shown) [Compound 47, N-(4-Aminomethylbenzoyl) S44HP] | 16 (≈ 15.1 µM) | 4 (≈ 3.78 µM) | 2 (≈ 1.89 µM) | 2 (≈ 1.89 µM)
8 | CC1O[C@@H](O[C@H]2/C=C/C=C/C=C/C=C/C=C/C=C/C=C/[C@H](C)[C@@H](O)[C@@H](C)[C@H](C)OC(=O)C[C@H](O)C[C@H](O)C[C@H](O)CC[C@@H](O)[C@H](O)C[C@]3(O)C[C@H](O)[C@@H](C)[C@H](C2)O3)[C@H](O)C(NCc2ccc(N(C)C)cc2)[C@@H]1O (stereo partly shown) [Compound 50, N-(4-N,N-Di-methylaminobenzyl) Compound 1] | 8 (≈ 7.79 µM) | 2 (≈ 1.95 µM) | 2 (≈ 1.95 µM) | 2 (≈ 1.95 µM)
9 | CC1C=CC=CC=CC=CC=CC=CC=CC(OC2OC(C)C(O)C(NC(=O)c3ccc(CN)cc3)C2O)CC2OC(O)(CC(O)C(O)CCC(O)CC(O)CC(O)CC(=O)OC(C)C(C)C1O)CC(O)C2C(=O)NCCCO (stereo not shown) [Compound 40] | 16 (≈ 14.4 µM) | 4 (≈ 3.59 µM) | 2 (≈ 1.79 µM) | 2 (≈ 1.79 µM)
10 | CC1C=CC=CC=CC=CC=CC=CC=CC(OC2OC(C)C(O)C(NC(=O)C(N)CCCCN)C2O)CC2OC(O)(CC(O)C(O)CCC(O)CC(O)CC(O)CC(=O)OC(C)C(C)C1O)CC(O)C2C(=O)O (stereo not shown) [Compound 23] | 8 (≈ 7.6 µM) | 8 (≈ 7.6 µM) | 4 (≈ 3.8 µM) | 4 (≈ 3.8 µM)
11 | CC1C=CC=CC=CC=CC=CC=CC=CC(OC2OC(C)C(O)C(NCC3(O)OCC(O)C(O)C3O)C2O)CC2OC(O)(CC(O)C(O)CCC(O)CC(O)CC(O)CC(=O)OC(C)C(C)C1O)CC(O)C2C(=O)NCCCO (stereo not shown) [Compound 36] | 16 (≈ 14 µM) | 4 (≈ 3.5 µM) | 4 (≈ 3.5 µM) | 4 (≈ 3.5 µM)
12 | CC1C=CC=CC=CC=CC=CC=CC=CC(OC2OC(C)C(O)C(NC(=O)C(N)CCCCN)C2O)CC2OC(O)(CC(O)C(O)CCC(O)CC(O)CC(O)CC(=O)OC(C)C(C)C1O)CC(O)C2C(=O)NCCCO (stereo not shown) [Compound 38] | 4 (≈ 3.61 µM) | 2 (≈ 1.8 µM) | 1 (≈ 0.901 µM) | 1 (≈ 0.901 µM)
13 | CC1C=CC=CC=CC=CC=CC=CC=CC(OC2OC(C)C(O)C(NCCCN)C2O)CC2OC(O)(CC(O)C(O)CCC(O)CC(O)CC(O)CC(=O)OC(C)C(C)C1O)CC(O)C2C(=O)O (stereo not shown) [Compound 21] | 4 (≈ 4.08 µM) | 4 (≈ 4.08 µM) | 2 (≈ 2.04 µM) | 4 (≈ 4.08 µM)
14 | CC1O[C@@H](O[C@H]2/C=C/C=C/C=C/C=C/C=C/C=C/C=C/[C@H](C)[C@@H](O)[C@@H](C)[C@H](C)OC(=O)C[C@H](O)C[C@H](O)C[C@H](O)CC[C@@H](O)[C@H](O)C[C@]3(O)C[C@H](O)[C@@H](C(=O)NCCN(C)C)[C@H](C2)O3)[C@H](O)C(NC(=O)[C@@H](N)CCCCN)[C@@H]1O.Cl (stereo partly shown) [Compound 44] | 4 | 2 | 1 | 2
15 | CC1O[C@@H](O[C@H]2/C=C/C=C/C=C/C=C/C=C/C=C/C=C/[C@H](C)[C@@H](O)[C@@H](C)[C@H](C)OC(=O)C[C@H](O)C[C@H](O)C[C@H](O)CC[C@@H](O)[C@H](O)C[C@]3(O)C[C@H](O)[C@@H](C(=O)NCCN(C)C)[C@H](C2)O3)[C@H](O)C(NC(=O)c2ccc(CN)cc2)[C@@H]1O (stereo partly shown) [Compound 46] | 4 (≈ 3.55 µM) | 2 (≈ 1.77 µM) | 2 (≈ 1.77 µM) | 2 (≈ 1.77 µM)
16 | CC1O[C@@H](O[C@H]2/C=C/C=C/C=C/C=C/C=C/C=C/C=C/[C@H](C)[C@@H](O)[C@@H](C)[C@H](C)OC(=O)C[C@H](O)C[C@H](O)C[C@H](O)CC[C@@H](O)[C@H](O)C[C@]3(O)C[C@H](O)[C@@H](C)[C@H](C2)O3)[C@H](O)C(N)[C@@H]1O.N[C@H](CCC(=O)O)C(=O)O (stereo partly shown) [Compound 54] | 2 | 2 | 2 | 2
